In patent publication US8389573B2, “Glycyrrhetinic acid derivatives” (Wellington Laboratories Inc., priority 2006, dated 2013):

Key:
PSA promoter = test: PSA-luc promoter luciferase assay in LNCaP cells; assay type: cell-based; conditions: basal
From the text: Transfections: The Gal4 reporter construct containing 5× Gal4 response elements (pGal4) was kindly provided by Dr. Marty Mayo (University of North Carolina, Chapel Hill, N.C.). The Gal4 DBD-PPARγ construct was a gift of Dr. Jennifer L. Oberfield (Glaxo Wellcome Research and Development, Research Triangle Park, N.C.). The PPRE-luc construct contains three tandem PPREs with a minimal TATA sequence linked to the luciferase gene in pGL2. The AR-luc construct containing the −5400 to +580 region of the androgen receptor promoter was provided by Dr. Donald J. Tindall (Mayo Clinic, Rochester, Minn.), and the PSA-luc construct containing the 5.8-kilobase region of the PSA promoter was provided by Dr. Hong-Wu Cheng (University of California, Davis, Calif.). LNCaP cells (1×10^5) were seeded in 12-well plates in DMEM/Ham's F-12 media supplemented with 2.5% charcoal-stripped FBS and grown overnight. Transient transfections were performed using Lipofectamine reagent (Invitrogen) according to the protocol provided by the manufacturer. Transfection studies were performed using 0.4 μg of Gal4Luc, 0.04 μg of β-galactosidase, 0.04 μg of Gal4 DBD-PPARγ, 0.4 μg of AR-luc, and 0.3 μg of PSA-luc. […] A Lumicount luminometer (PerkinElmer Life and Analytical Sciences) was used to quantify luciferase and β-galactosidase activities, and the luciferase activities were normalized to β-galactosidase activity.

HT-29 colon cancer cells = test: Cell proliferation assay in HT-29 cells; assay type: cell-based; conditions: Homo sapiens, read-out: IC50, growth inhibition / cell proliferation
Method: Human colon carcinoma cell lines SW480 and HT29 were provided by Dr. Stan Hamilton, M.D. Anderson Cancer Center (Houston, Tex.); SW-480 and HT-29 cells were maintained in Dulbecco's modified Eagle's medium nutrient mixture with Ham's F-12 (DMEM/Ham's F-12; Sigma-Aldrich, St. Louis, Mo.) with phenol red supplemented with 0.22% sodium bicarbonate, 0.011% sodium pyruvate, and 5% fetal bovine serum and 10 ml/l 100× antibiotic antimycotic solution (Sigma-Aldrich). Cells were maintained at 37° C. in the presence of 5% CO2.
SW480 and HT 29 Cells (2×10^4) were plated in 12-well plates, and media were replaced the next day with DMEM/Ham's F-12 media containing 2.5% charcoal-stripped FBS and either vehicle (DMSO) or the indicated ligand and dissolved in DMSO. Fresh media and compounds were added every 48 h. Cells were counted at the indicated times using a Coulter Z1 cell counter. Each experiment was done in triplicate, and results are expressed as means±S.E. for each determination

PPARγ = test: PPARγ-GAL4/GAL4-Luc or PPRE3-Luc transactivation in LNCaP cells; assay type: cell-based
From the text: Transfections: The Gal4 reporter construct containing 5× Gal4 response elements (pGal4) was kindly provided by Dr. Marty Mayo (University of North Carolina, Chapel Hill, N.C.). The Gal4 DBD-PPARγ construct was a gift of Dr. Jennifer L. Oberfield (Glaxo Wellcome Research and Development, Research Triangle Park, N.C.). The PPRE-luc construct contains three tandem PPREs with a minimal TATA sequence linked to the luciferase gene in pGL2. The AR-luc construct containing the −5400 to +580 region of the androgen receptor promoter was provided by Dr. Donald J. Tindall (Mayo Clinic, Rochester, Minn.), and the PSA-luc construct containing the 5.8-kilobase region of the PSA promoter was provided by Dr. Hong-Wu Cheng (University of California, Davis, Calif.). LNCaP cells (1×10^5) were seeded in 12-well plates in DMEM/Ham's F-12 media supplemented with 2.5% charcoal-stripped FBS and grown overnight. Transient transfections were performed using Lipofectamine reagent (Invitrogen) according to the protocol provided by the manufacturer. Transfection studies were performed using 0.4 μg of Gal4Luc, 0.04 μg of β-galactosidase, 0.04 μg of Gal4 DBD-PPARγ, 0.4 μg of AR-luc, and 0.3 μg of PSA-luc. Six hr after transfection, the transfection mix was replaced with complete media containing either vehicle (DMSO) or the indicated ligand for 20 to 22 hr. Cells were then lysed with 100 μl of 1× reporter lysis buffer, and 30 μl of cell extract was used for luciferase and β-galactosidase assays. A Lumicount luminometer (PerkinElmer Life and Analytical Sciences) was used to quantify luciferase and β-galactosidase activities, and the luciferase activities were normalized to β-galactosidase activity.

[1] = system: Sp1, Sp3 and Sp4 in liver; test: Sp protein expression in non-target tissue (liver) of treated mice; assay type: in vivo; conditions: preliminary results
From the text: (i) Animal treatment: Male athymic nude mice are obtained from commercial sources and their use approved by the Institutional Animal Care and Use Committee. Ten animals are used for each treatment group and based on consultation with biostatisticians, this number is sufficient for determining statistical significance between treatment groups (41, 42). At least one AR-positive (LNCaP/22Rv1) and AR-negative (PC3/DU145) prostate cancer cell line is used in the xenograft study. Cells are harvested by exposure to trypsin and resuspended in serum-free Hanks' balanced salt solution (HBSS). […] In addition, Western blot analysis of Sp proteins, proapoptotic and antiangiogenic responses is determined on whole cell lysates from compound- and corn oil (vehicle)-treated tumors. Where possible (depending on the amount of protein extracted), the effects of the compound versus corn oil on expression of these proteins is quantitated and statistically analyzed. In addition, the effects of the compound on Sp protein expression in non-target tissue (e.g. liver and kidney) is determined. […] Immunostaining for Sp1, Sp3 and Sp4 and for angiogenic (VEGF, VEGFR1 and VEGFR2) and apoptotic (cleaved PARP, activated caspase 3, survivin and TUNEL) proteins/responses are determined as described above.

IC50 (HT-29 colon cancer cells): 200 to 500 nM
Sp1, Sp3 and Sp4 expression in liver [1]: unaffected
Structure (SMILES): COC(=O)[C@@]1(C)CC[C@]2(C)CC[C@]3(C)C(=CC(=O)[C@@H]4[C@@]5(C)C=C(C#N)C(=O)C(C)(C)[C@@H]5CC[C@]43C)[C@@H]2C1 [β-CDODA-Me, Methyl 2-cyano-3,11-dioxo-18β-oleana-1,12-dien-30-oate]
transactivation of PSA-Luc construct (PSA promoter): inhibited transactivation
induced transactivation after cotreatment with 10 μM T007 (PPARγ): significant inhibition of induced transactivation
PPARγ-dependent transactivation (luciferase activity) (PPARγ; 1-5 μM): significantly induced luciferase activity
